Assay results taken from ChEMBL document CHEMBL1201862, “PubChem BioAssay data set” (2004).
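Briefly, cells in 96-well plates were exposed to five compound concentrations for 48 h, and endpoints were estimated by linear interpolation. GI50 marks 50% less growth.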 Calls of active or inactive are those of the source. No stated cut-off is given here; in the data, active = GI50 up to about 1.1 µM and inactive = higher. Starred links: 1 amine or outer side, 2 acyl side, 3 side chain; linkers in the order of their positions; H or OH if unused. Positions of bridges follow the written chain, without caps; N, C: chain ends. Non-standard residues stand in square brackets, D forms with d. Residues, ends and D or L forms follow the SMILES beside them. ξ: configuration not given here. X37 = CC[C@H](C)[C@@H](N[*:1])[C@@H](O)CC(=O)O[C@H](C(=O)[C@H](C)C(=O)[*:2])C(C)C; NMeY = CN[C@@H](Cc1ccc(O)cc1)C(=O)O; dNMeL = CN[C@H](CC(C)C)C(=O)O; ξΔPro = O=C(O)C1C=CCN1

How the values were obtained:
Test in all cases: growth of human tumour cells (NCI), 48 h
OVCAR-8 = tested on: OVCAR-8
SR = tested on: SR
LOX IMVI = tested on: LOX IMVI
CCRF-CEM = tested on: CCRF-CEM
NCI/ADR-RES = tested on: NCI/ADR-RES
OVCAR-5 = tested on: OVCAR-5
OVCAR-4 = tested on: OVCAR-4
COLO 205 = tested on: COLO 205
OVCAR-3 = tested on: OVCAR-3
HOP-92 = tested on: HOP-92
M14 = tested on: M14
T47D = tested on: T47D
HCT-116 = tested on: HCT-116
NCI-H460 = tested on: NCI-H460
SN12C = tested on: SN12C
A498 = tested on: A498
U-251 = tested on: U-251
PC-3 = tested on: PC-3
MCF7 = tested on: MCF7

Row | SMILES | GI50 (OVCAR-8) | GI50 (SR) | GI50 (LOX IMVI) | GI50 (CCRF-CEM) | GI50 (NCI/ADR-RES) | GI50 (OVCAR-5) | GI50 (OVCAR-4) | GI50 (COLO 205) | GI50 (OVCAR-3) | GI50 (HOP-92) | GI50 (M14) | GI50 (T47D) | GI50 (HCT-116) | GI50 (NCI-H460) | GI50 (SN12C) | GI50 (A498) | GI50 (U-251) | GI50 (PC-3) | GI50 (MCF7)
1 | CC[C@H](C)[C@H]1NC(=O)[C@@H](NC(=O)[C@@H](CC(C)C)N(C)C(=O)C2C=CCN2)[C@@H](C)OC(=O)[C@H](Cc2ccc(OC)cc2)N(C)C(=O)[C@@H]2CCCN2C(=O)[C@H](CC(C)C)NC(=O)[C@@H](C)C(=O)[C@H](C(C)C)OC(=O)C[C@@H]1O (stereo not given in full) (H-[ξΔPro][dNMeL]T[X37]LP[NMeY](Me); ester 3-C) | < 0.005 µM (active) | < 0.005 µM (active) | < 0.005 µM (active) | < 0.005 µM (active) | 0.0617 µM (active) | < 0.005 µM (active) | < 0.005 µM (active) | < 0.005 µM (active) | < 0.005 µM (active) | < 0.005 µM (active) | < 0.005 µM (active) | < 0.005 µM (active) | < 0.005 µM (active) | < 0.005 µM (active) | < 0.005 µM (active) | 0.00594 µM (active) | < 0.005 µM (active) | < 0.005 µM (active) | < 0.005 µM (active)
2 | CCOC(=O)C1(Cc2ccccc2)C=CN(C(=O)c2ccccc2)C=C1 | 34.4 µM (inactive) | 22.4 µM (inactive) | 34.4 µM (inactive) | 20.9 µM (inactive) | 36.6 µM (inactive) | > 100 µM (inactive) | 42.8 µM (inactive) | 17.8 µM (inactive) | 41.3 µM (inactive) | 23.4 µM (inactive) | 35.5 µM (inactive) | 16.1 µM (inactive) | 29.8 µM (inactive) | 51.1 µM (inactive) | 29.6 µM (inactive) | 22.9 µM (inactive) | 29.2 µM (inactive) | 25.4 µM (inactive) | 30.4 µM (inactive)
3 | CSc1ncc2c(n1)-c1ccccc1OC2NC1CC1 (stereo not given) | 71.4 µM (inactive) | > 100 µM (inactive) | 92 µM (inactive) | 31.4 µM (inactive) | 48.1 µM (inactive) | > 100 µM (inactive) | 30.6 µM (inactive) | > 100 µM (inactive) | 57.5 µM (inactive) | 43.9 µM (inactive) | > 100 µM (inactive) | 28.6 µM (inactive) | 64.1 µM (inactive) | 81.8 µM (inactive) | 63.5 µM (inactive) | 13.7 µM (inactive) | 76.2 µM (inactive) | 50.7 µM (inactive) | 58.3 µM (inactive)
4 | O=C(Cn1ccc(=O)[nH]c1=O)Nc1ccc(C(=O)O)c(O)c1 | > 100 µM (inactive) | > 100 µM (inactive) | > 100 µM (inactive) | > 100 µM (inactive) | > 100 µM (inactive) | > 100 µM (inactive) | > 100 µM (inactive) | > 100 µM (inactive) | > 100 µM (inactive) | > 100 µM (inactive) | > 100 µM (inactive) | > 100 µM (inactive) | > 100 µM (inactive) | > 100 µM (inactive) | > 100 µM (inactive) | > 100 µM (inactive) | > 100 µM (inactive) | > 100 µM (inactive) | > 100 µM (inactive)
5 | CC(C)(C)OC(=O)N1C(c2cccnc2)=CC[C@H]2C3CC=C(c4cccnc4)[C@@]3(C)CC[C@@H]21 (stereo not given in full) | 4.02 µM (inactive) | 3.28 µM (inactive) | 2.71 µM (inactive) | 3.99 µM (inactive) | 8.45 µM (inactive) | 11.9 µM (inactive) | 5.09 µM (inactive) | 1.74 µM (inactive) | 3.44 µM (inactive) | 2.52 µM (inactive) | 4.75 µM (inactive) | 4.16 µM (inactive) | 4.04 µM (inactive) | 3.51 µM (inactive) | 3.67 µM (inactive) | 5.81 µM (inactive) | 3.36 µM (inactive) | 4.6 µM (inactive) | 2.81 µM (inactive)
6 | Cc1nc2[nH]ccn2c(=O)c1CCO | > 10 µM (inactive) | > 10 µM (inactive) | > 10 µM (inactive) | > 10 µM (inactive) | > 10 µM (inactive) | > 10 µM (inactive) | > 10 µM (inactive) | > 10 µM (inactive) | > 10 µM (inactive) | > 10 µM (inactive) | > 10 µM (inactive) | > 10 µM (inactive) | > 10 µM (inactive) | > 10 µM (inactive) | > 10 µM (inactive) | > 10 µM (inactive) | > 10 µM (inactive) | > 10 µM (inactive) | > 10 µM (inactive)
7 | COc1c(C(C)(C)C)cc(CC2C(=O)C=CC2=O)cc1C(C)(C)C | 9.68 µM (inactive) | 3.89 µM (inactive) | 11.1 µM (inactive) | 2.29 µM (inactive) | 32 µM (inactive) | 18.3 µM (inactive) | 21.2 µM (inactive) | 6.75 µM (inactive) | 13.9 µM (inactive) | 16.1 µM (inactive) | 17.9 µM (inactive) | 4.18 µM (inactive) | 3.13 µM (inactive) | 20.2 µM (inactive) | 26.5 µM (inactive) | 18 µM (inactive) | 18.2 µM (inactive) | 15.8 µM (inactive) | 16.7 µM (inactive)
8 | CC(=O)O[C@H]1CC[C@@]2(C)C(=CC[C@H]3[C@@H]4C[C@H](N5CCN(C)CC5)[C@H](OC(C)=O)[C@@]4(C)CC[C@@H]32)C1 | 15.6 µM (inactive) | 4.68 µM (inactive) | 3.03 µM (inactive) | 3.98 µM (inactive) | 19.6 µM (inactive) | 26.1 µM (inactive) | 17.6 µM (inactive) | 17.1 µM (inactive) | 8.47 µM (inactive) | 25.4 µM (inactive) | 3.27 µM (inactive) | 17.8 µM (inactive) | 12.9 µM (inactive) | 21.6 µM (inactive) | 24 µM (inactive) | 20.9 µM (inactive) | 19.7 µM (inactive) | 16.8 µM (inactive) | 5.64 µM (inactive)
9 | Cc1cc(/N=N/c2c(O)ccc3ccccc23)ccc1/N=N/c1cccc([N+](C)(C)C)c1 | 10.1 µM (inactive) | 7.69 µM (inactive) | 4.56 µM (inactive) | 7.16 µM (inactive) | 74.1 µM (inactive) | 17.7 µM (inactive) | > 27.1 µM (inactive) | 2.47 µM (inactive) | 5.21 µM (inactive) | 15.6 µM (inactive) | 13.6 µM (inactive) | 6.22 µM (inactive) | 9.82 µM (inactive) | 9.42 µM (inactive) | 7.11 µM (inactive) | 44.7 µM (inactive) | 1.58 µM (inactive) | 6.81 µM (inactive) | 7.1 µM (inactive)
10 | N=c1oc2ccc([N+](=O)[O-])cc2cc1C(=O)Nc1ccccn1 | 92.3 µM (inactive) | 58.1 µM (inactive) | 33.5 µM (inactive) | 31.5 µM (inactive) | 97.3 µM (inactive) | > 100 µM (inactive) | 90.8 µM (inactive) | 44 µM (inactive) | 20.6 µM (inactive) | 71.9 µM (inactive) | 36.8 µM (inactive) | 26.8 µM (inactive) | 32.4 µM (inactive) | 69 µM (inactive) | 72.6 µM (inactive) | > 100 µM (inactive) | 45.5 µM (inactive) | 12.9 µM (inactive) | 12.2 µM (inactive)
